From ChEMBL document CHEMBL1201862, “PubChem BioAssay data set” (2004)
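Assay format: 96-well plates, 48-hour exposure. GI50: concentration for 50% inhibition of growth.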 Active and inactive are the calls of the source. Cut-off read from the data, not from the text of the source: active = GI50 up to about 1.1 µM and inactive = higher.

Assays:
Experiment in all cases: DTP human tumour cell line panel, 48 h
OVCAR-4 = tested on: OVCAR-4
SF-539 = tested on: SF-539
OVCAR-3 = tested on: OVCAR-3
NCI-H522 = tested on: NCI-H522
OVCAR-5 = tested on: OVCAR-5
RXF 393 = tested on: RXF 393
SNB-75 = tested on: SNB-75
UACC-257 = tested on: UACC-257
CCRF-CEM = tested on: CCRF-CEM
SF-295 = tested on: SF-295
NCI/ADR-RES = tested on: NCI/ADR-RES
SK-OV-3 = tested on: SK-OV-3
NCI-H226 = tested on: NCI-H226
SN12C = tested on: SN12C
HCT-15 = tested on: HCT-15
HL-60 = tested on: HL-60
SK-MEL-5 = tested on: SK-MEL-5
KM12 = tested on: KM12
MDA-MB-435 = tested on: MDA-MB-435
HCC 2998 = tested on: HCC 2998

O=[N+]([O-])c1cc(Cc2cc([N+](=O)[O-])c3cccnc3c2O)c(O)c2ncccc12
GI50 (OVCAR-4): 4.05 µM (inactive) | GI50 (SF-539): 10.6 µM (inactive) | GI50 (OVCAR-3): 2.38 µM (inactive) | GI50 (NCI-H522): 3.51 µM (inactive) | GI50 (OVCAR-5): 24.8 µM (inactive) | GI50 (RXF 393): 5.32 µM (inactive) | GI50 (SNB-75): 7.18 µM (inactive) | GI50 (UACC-257): 2.65 µM (inactive) | GI50 (CCRF-CEM): 1.77 µM (inactive) | GI50 (SF-295): 6.15 µM (inactive) | GI50 (NCI/ADR-RES): 3.6 µM (inactive) | GI50 (SK-OV-3): 15.7 µM (inactive) | GI50 (NCI-H226): 16.6 µM (inactive) | GI50 (SN12C): 4.55 µM (inactive) | GI50 (HCT-15): 4.23 µM | GI50 (HL-60): 1.61 µM (inactive) | GI50 (SK-MEL-5): 6.79 µM (inactive) | GI50 (KM12): 6.71 µM (inactive) | GI50 (MDA-MB-435): 10.5 µM (inactive)

COc1cc(C(=O)c2cocc2C(=O)c2ccc3c(c2)OCO3)cc(OC)c1OC
GI50 (OVCAR-4): 18.5 µM (inactive) | GI50 (SF-539): 0.399 µM (active) | GI50 (HCC 2998): 3.72 µM (inactive) | GI50 (OVCAR-3): 0.304 µM (active) | GI50 (NCI-H522): 0.268 µM (active) | GI50 (OVCAR-5): 18.6 µM (inactive) | GI50 (RXF 393): 0.67 µM (active) | GI50 (SNB-75): 0.336 µM (active) | GI50 (UACC-257): 0.531 µM (active) | GI50 (CCRF-CEM): 0.444 µM (active) | GI50 (SF-295): 0.351 µM (active) | GI50 (NCI/ADR-RES): 0.142 µM (active) | GI50 (SK-OV-3): 2.49 µM (inactive) | GI50 (NCI-H226): 1.8 µM (inactive) | GI50 (SN12C): 1.49 µM (inactive) | GI50 (HCT-15): 0.347 µM | GI50 (HL-60): 0.0946 µM (active) | GI50 (SK-MEL-5): 0.232 µM (active) | GI50 (KM12): 0.254 µM (active) | GI50 (MDA-MB-435): 0.0916 µM (active)

NNc1nnc(-c2nnc(NN)o2)o1
GI50 (OVCAR-4): > 10 µM (inactive) | GI50 (SF-539): > 10 µM (inactive) | GI50 (HCC 2998): > 10 µM (inactive) | GI50 (OVCAR-3): > 10 µM (inactive) | GI50 (OVCAR-5): > 10 µM (inactive) | GI50 (RXF 393): > 10 µM (inactive) | GI50 (UACC-257): > 10 µM (inactive) | GI50 (CCRF-CEM): > 10 µM (inactive) | GI50 (SF-295): > 10 µM (inactive) | GI50 (NCI/ADR-RES): > 10 µM (inactive) | GI50 (NCI-H226): > 10 µM (inactive) | GI50 (SN12C): > 10 µM (inactive) | GI50 (HCT-15): > 10 µM | GI50 (HL-60): > 10 µM (inactive) | GI50 (SK-MEL-5): > 10 µM (inactive) | GI50 (KM12): > 10 µM (inactive) | GI50 (MDA-MB-435): > 10 µM (inactive)

CC1(C)C/C(=N/O)c2c(nc3ccc4ccccc4c3c2-c2ccc(Cl)cc2)C1
GI50 (OVCAR-4): 13.8 µM (inactive) | GI50 (SF-539): 16.6 µM (inactive) | GI50 (HCC 2998): 21.6 µM (inactive) | GI50 (OVCAR-3): 12.3 µM (inactive) | GI50 (NCI-H522): 15.3 µM (inactive) | GI50 (OVCAR-5): 40.7 µM (inactive) | GI50 (RXF 393): 17.6 µM (inactive) | GI50 (SNB-75): 16.2 µM (inactive) | GI50 (UACC-257): 25.4 µM (inactive) | GI50 (CCRF-CEM): 10.9 µM (inactive) | GI50 (SF-295): 10.9 µM (inactive) | GI50 (NCI/ADR-RES): 17.5 µM (inactive) | GI50 (SK-OV-3): 15 µM (inactive) | GI50 (NCI-H226): 21 µM (inactive) | GI50 (SN12C): 10.8 µM (inactive) | GI50 (HCT-15): 16.4 µM | GI50 (HL-60): 9.14 µM (inactive) | GI50 (SK-MEL-5): 37.2 µM (inactive) | GI50 (KM12): 42 µM (inactive) | GI50 (MDA-MB-435): 60.1 µM (inactive)

CN1C2CCC1CC(CC(=O)NC(c1ccc(F)cc1)c1ccc(F)cc1)C2 (stereo not drawn)
GI50 (OVCAR-4): > 100 µM (inactive) | GI50 (SF-539): 70 µM (inactive) | GI50 (OVCAR-3): > 100 µM (inactive) | GI50 (NCI-H522): > 100 µM (inactive) | GI50 (OVCAR-5): > 100 µM (inactive) | GI50 (RXF 393): > 100 µM (inactive) | GI50 (SNB-75): > 100 µM (inactive) | GI50 (UACC-257): 20 µM (inactive) | GI50 (CCRF-CEM): 2.2 µM (inactive) | GI50 (SF-295): > 100 µM (inactive) | GI50 (NCI/ADR-RES): > 100 µM (inactive) | GI50 (SK-OV-3): > 100 µM (inactive) | GI50 (NCI-H226): > 100 µM (inactive) | GI50 (SN12C): > 100 µM (inactive) | GI50 (HCT-15): > 100 µM | GI50 (HL-60): 0.242 µM (active) | GI50 (SK-MEL-5): 20.8 µM (inactive) | GI50 (KM12): > 100 µM (inactive) | GI50 (MDA-MB-435): 35.6 µM (inactive)

CC(=O)N1C(Nc2ccccc2)CCN1c1ccccc1 (stereo not drawn)
GI50 (OVCAR-4): > 10 µM (inactive) | GI50 (SF-539): 5.19 µM (inactive) | GI50 (HCC 2998): > 10 µM (inactive) | GI50 (OVCAR-3): > 10 µM (inactive) | GI50 (NCI-H522): > 10 µM (inactive) | GI50 (OVCAR-5): > 10 µM (inactive) | GI50 (RXF 393): > 10 µM (inactive) | GI50 (SNB-75): > 10 µM (inactive) | GI50 (UACC-257): > 10 µM (inactive) | GI50 (CCRF-CEM): > 10 µM (inactive) | GI50 (SF-295): 3.96 µM (inactive) | GI50 (NCI/ADR-RES): 9.89 µM (inactive) | GI50 (SK-OV-3): > 10 µM (inactive) | GI50 (NCI-H226): > 10 µM (inactive) | GI50 (SN12C): > 10 µM (inactive) | GI50 (HCT-15): 3.66 µM | GI50 (HL-60): 5.08 µM (inactive) | GI50 (SK-MEL-5): > 10 µM (inactive) | GI50 (MDA-MB-435): 3.68 µM (inactive)

CC1CCCC(C(O)CC2CC(=O)NC(=O)C2)C1O (stereo not drawn)
GI50 (OVCAR-4): > 100 µM (inactive) | GI50 (SF-539): > 100 µM (inactive) | GI50 (HCC 2998): > 100 µM (inactive) | GI50 (OVCAR-3): > 100 µM (inactive) | GI50 (OVCAR-5): > 100 µM (inactive) | GI50 (RXF 393): > 100 µM (inactive) | GI50 (SNB-75): > 100 µM (inactive) | GI50 (UACC-257): > 100 µM (inactive) | GI50 (CCRF-CEM): > 100 µM (inactive) | GI50 (SF-295): > 100 µM (inactive) | GI50 (NCI/ADR-RES): > 100 µM (inactive) | GI50 (SK-OV-3): > 100 µM (inactive) | GI50 (NCI-H226): > 100 µM (inactive) | GI50 (SN12C): > 100 µM (inactive) | GI50 (HCT-15): > 100 µM | GI50 (HL-60): > 100 µM (inactive) | GI50 (SK-MEL-5): > 100 µM (inactive) | GI50 (KM12): > 100 µM (inactive) | GI50 (MDA-MB-435): > 100 µM (inactive)

O/N=C(\CC(O)(C(F)(F)F)C(F)(F)F)c1cccs1
GI50 (OVCAR-4): > 10 µM (inactive) | GI50 (SF-539): > 10 µM (inactive) | GI50 (HCC 2998): > 10 µM (inactive) | GI50 (OVCAR-3): > 10 µM (inactive) | GI50 (NCI-H522): > 10 µM (inactive) | GI50 (OVCAR-5): > 10 µM (inactive) | GI50 (RXF 393): > 10 µM (inactive) | GI50 (SNB-75): 7.46 µM (inactive) | GI50 (UACC-257): > 10 µM (inactive) | GI50 (CCRF-CEM): > 10 µM (inactive) | GI50 (SF-295): > 10 µM (inactive) | GI50 (NCI/ADR-RES): > 10 µM (inactive) | GI50 (SK-OV-3): > 10 µM (inactive) | GI50 (NCI-H226): > 10 µM (inactive) | GI50 (SN12C): > 10 µM (inactive) | GI50 (HCT-15): > 10 µM | GI50 (HL-60): > 10 µM (inactive) | GI50 (SK-MEL-5): > 10 µM (inactive) | GI50 (KM12): > 10 µM (inactive) | GI50 (MDA-MB-435): > 10 µM (inactive)
